Results as given in PMC11748363, “Antimicrobial and Antiproliferative Properties of 2‐Phenyl‐N‐(Pyridin‐2‐yl)acetamides” (Chemical Biology & Drug Design, 2025).
Values after ≈ are worked out from the molar mass of the structure shown. Where two headings read alike, the source gives them in different places.

What was measured:
[1] = system: Lichtheimia corymbifera CCM 8077; assay: Antifungal microdilution broth MIC, LC
[2] = system: Candida tropicalis CCM 8264, ATCC 750; assay: Antifungal microdilution broth MIC, CT
[3] = system: Mycolicibacterium aurum DSM 43999; assay: Antimycobacterial microdilution broth MIC (resazurin), M. aurum; assay type: cell-based; conditions: DSM43999, read-out: MIC M. aurum
[4] = system: Enterococcus faecalis CCM 4224, ATCC 29212; assay: Antibacterial microdilution broth MIC, EF; assay type: cell-based
[5] = system: Candida krusei CCM 8271, ATCC 6258; assay: Antifungal microdilution broth MIC, CK; conditions: Pichia kudriavzevii
[6] = system: Escherichia coli CCM 3954, ATCC 25922; assay: Antibacterial microdilution broth MIC, EC; assay type: cell-based
[7] = system: Candida albicans CCM 8320, ATCC 24433; assay: Antifungal microdilution broth MIC, CA
[8] = system: Mycobacterium tuberculosis H37Ra; assay: Antimycobacterial microdilution broth MIC (resazurin), Mtb H37Ra; assay type: cell-based; conditions: Mycobacterium tuberculosis, H37RA, read-out: MIC Mtb H37Ra
[9] = system: Acinetobacter baumannii DSM 30007, ATCC 19606; assay: Antibacterial microdilution broth MIC, ACI; assay type: cell-based
[10] = system: Staphylococcus epidermidis CCM 4418, ATCC 12228; assay: Antibacterial microdilution broth MIC, SE; assay type: cell-based
[11] = system: Staphylococcus aureus subsp. aureus CCM 4750, ATCC 43300 (MRSA); assay: Antibacterial microdilution broth MIC, MRSA; assay type: cell-based; conditions: Staphylococcus aureus
[12] = system: Pseudomonas aeruginosa CCM 3955, ATCC 27853; assay: Antibacterial microdilution broth MIC, PA; assay type: cell-based
[13] = system: Aspergillus fumigatus ATCC 204305; assay: Antifungal microdilution broth MIC, AF
[14] = system: Aspergillus flavus CCM 8363; assay: Antifungal microdilution broth MIC, AFla
[15] = system: HepG2 cell line; assay: Cytotoxicity CellTiter 96, HepG2; assay type: cell-based, human; conditions: Homo sapiens, HepG2, 24 h, 24 h incubation; ^c compound precipitated in the testing medium; ^d over the limit of tested concentrations
[16] = system: Staphylococcus aureus CCM 4223, ATCC 29213; assay: Antibacterial microdilution broth MIC, SA; assay type: cell-based; conditions: Staphylococcus aureus
[17] = system: Trichophyton interdigitale CCM 8377, ATCC 9533; assay: Antifungal microdilution broth MIC, TI; conditions: Trichophyton interdigitale
[18] = system: Mycolicibacterium smegmatis DSM 43465; assay: Antimycobacterial microdilution broth MIC (resazurin), M. smegmatis; assay type: cell-based; conditions: DSM43465, read-out: MIC M. smegmatis
[19] = system: Klebsiella pneumoniae CCM 4415, ATCC 10031; assay: Antibacterial microdilution broth MIC, KP
[20] = system: Candida parapsilosis CCM 8260, ATCC 22019; assay: Antifungal microdilution broth MIC, CP; conditions: Lodderomyces parapsilosis
[21] = CCM8077, 24 h, read-out: MIC LC 24h
[22] = CCM8077, 48 h, read-out: MIC LC 48h
[23] = ATCC204305, 24 h, read-out: MIC AF 24h
[24] = ATCC204305, 48 h, read-out: MIC AF 48h
[25] = CCM8363, 24 h, read-out: MIC AFla 24h
[26] = CCM8363, 48 h, read-out: MIC AFla 48h

| SMILES | MIC [1, 21] | MIC [1, 22] | MIC ([2]; 24 h, read-out: MIC CT 24h) | MIC ([2]; 48 h, read-out: MIC CT 48h) | MIC [3] | MIC ([4]; 24 h, read-out: MIC EF 24h) | MIC ([4]; 48 h, read-out: MIC EF 48h) | MIC ([5]; 24 h, read-out: MIC CK 24h) | MIC ([5]; 48 h, read-out: MIC CK 48h) | MIC ([6]; 24 h, read-out: MIC EC 24h) | MIC ([6]; 48 h, read-out: MIC EC 48h) | MIC ([7]; 24 h, read-out: MIC CA 24h) | MIC ([7]; 48 h, read-out: MIC CA 48h) | MIC ([8]; Calculated from MIC (μg/mL)) | MIC [8] | MIC ([9]; 24 h, read-out: MIC ACI 24h) | MIC ([9]; 48 h, read-out: MIC ACI 48h) | MIC ([10]; 24 h, read-out: MIC SE 24h) | MIC ([10]; 48 h, read-out: MIC SE 48h) | MIC ([11]; 24 h, read-out: MIC MRSA 24h) | further results |
| --- | --- | --- | --- | --- | --- | --- | --- | --- | --- | --- | --- | --- | --- | --- | --- | --- | --- | --- | --- | --- | --- |
| O=C(Cc1cccc(Cl)c1)Nc1ccccn1 [Compound 16, 2-(3-chlorophenyl)-N-(pyridin-2-yl)acetamide] | > 500 µM | > 500 µM | > 500 µM | > 500 µM | 250 µg/mL (≈ 1010 µM) | > 500 µM | > 500 µM | > 500 µM | > 500 µM | > 500 µM | > 500 µM | > 500 µM | > 500 µM | 253 µM | 62.5 µg/mL | > 500 µM | > 500 µM | 125 µM (≈ 30.8 µg/mL) | 250 µM (≈ 61.7 µg/mL) | > 500 µM | MIC ([11]; 48 h, read-out: MIC MRSA 48h): > 500 µM; MIC ([12]; 24 h, read-out: MIC PA 24h): > 500 µM; MIC ([12]; 48 h, read-out: MIC PA 48h): > 500 µM; MIC [13, 23]: > 500 µM; MIC [13, 24]: > 500 µM; MIC [14, 25]: > 500 µM; MIC [14, 26]: > 500 µM; IC50 [15]: > 250 µM; MIC ([16]; 24 h, read-out: MIC SA 24h): 500 µM (≈ 123 µg/mL); MIC ([16]; 48 h, read-out: MIC SA 48h): 500 µM (≈ 123 µg/mL); MIC ([17]; 72 h, read-out: MIC TI 72h): 500 µM (≈ 123 µg/mL); MIC ([17]; 120 h, read-out: MIC TI 120h): 500 µM (≈ 123 µg/mL); MIC [18]: > 500 µg/mL; MIC KP 24h [19]: > 500 µM; MIC KP 48h [19]: > 500 µM; MIC ([20]; 24 h, read-out: MIC CP 24h): > 500 µM; MIC ([20]; 48 h, read-out: MIC CP 48h): > 500 µM |
| O=C(Cc1ccc(C(F)(F)F)cc1)Nc1ccc(Cl)cn1 [Compound 29] | > 500 µM | > 500 µM | > 500 µM | > 500 µM | > 500 µg/mL | > 500 µM | > 500 µM | > 500 µM | > 500 µM | > 500 µM | > 500 µM | > 500 µM | > 500 µM | 397 µM | 125 µg/mL | > 500 µM | > 500 µM | 250 µM (≈ 78.7 µg/mL) | 250 µM (≈ 78.7 µg/mL) | > 500 µM | MIC ([11]; 48 h, read-out: MIC MRSA 48h): > 500 µM; MIC ([12]; 24 h, read-out: MIC PA 24h): > 500 µM; MIC ([12]; 48 h, read-out: MIC PA 48h): > 500 µM; MIC [13, 23]: > 500 µM; MIC [13, 24]: > 500 µM; MIC [14, 25]: > 500 µM; MIC [14, 26]: > 500 µM; IC50 [15]: > 50 µM; MIC ([16]; 24 h, read-out: MIC SA 24h): > 500 µM; MIC ([16]; 48 h, read-out: MIC SA 48h): > 500 µM; MIC ([17]; 72 h, read-out: MIC TI 72h): > 500 µM; MIC ([17]; 120 h, read-out: MIC TI 120h): > 500 µM; MIC [18]: > 500 µg/mL; MIC KP 24h [19]: > 500 µM; MIC KP 48h [19]: > 500 µM; MIC ([20]; 24 h, read-out: MIC CP 24h): > 500 µM; MIC ([20]; 48 h, read-out: MIC CP 48h): > 500 µM |
